Source: patent US10160867B2, “Benzoxaborole-containing coating resistant to cellulose-supportable fungus” (THE PENN STATE RESEARCH FOUNDATION, priority 2015, dated 2018)
≈ marks a conversion by molar mass, not a printed value.

Tests used:
Type in all cases: cell-based
Alternaria alternata = experiment: 3 day MIC, broth microdilution in 25% PDB; conditions: 72 h, 25% PDB, read-out: 3 day MIC
Protocol: (§1) Stock solutions (concentrations of between 4,000 μg/mL to 10,000 μg/mL; stored at −18° C.) of the above antifungals were prepared in dimethyl sulfoxide (DMSO). The stock solutions were further diluted into sterile 25% potato dextrose broth (PDB) so that the diluted solutions could be used for the antifungal susceptibility studies. This way, a typical microdilution study would reach a final ratio of about 0.5-2% v/v of DMSO in 25% PDB.
(§2) Spore inocula were prepared in sterile distilled water with 0.1% Tween® 20 (a polysorbate surfactant), and a hemocytometer was used to determine the spore density. Typically, the spore inoculum was prepared fresh prior to each study, and the inoculum was appropriately diluted to a final concentration of 0.4-1×10^5 spores/mL or colony-forming unit (CFU)/mL in each study. The spore suspension can be stored in a refrigerator at 4° C. for up to one week.
(§3) The studies were performed in flat bottom, 96-well microtiter plates (Greiner Bio-One, Frickenhausen, Germany).
(§4) Plates sealed with clear polyester film (VWR, Radnor, Pa.) were incubated at a temperature of about 25° C. The progress of fungal growth was monitored at 48 hours and 72 hours.

Stachybotrys chartarum [1] = experiment: 3 day MIC, broth microdilution in 25% PDB; conditions: 72 h, 25% PDB, read-out: 3 day MIC
Protocol: as §1, §2, §3, §4

Aspergillus flavus = experiment: 3 day MIC, broth microdilution in 25% PDB; conditions: 72 h
Protocol: as §1, §2
(§5) The minimal inhibitory concentrations (MICs) for individual antifungal agents were determined by following a modified broth microdilution protocol CLSI (Clinical and Laboratory Standards Institute) M38-A2 [Clinical and Laboratory Standards Institute (2008) Reference method for broth dilution antifungal susceptibility testing of filamentous fungi—2nd edition: Approved Standard M38-A2, CLSI, Wayne, Pa.] where 25% potato dextrose broth (PDB) was used as the medium. The studies were performed in flat bottom, 96-well microtiter plates (Greiner Bio-One, Frickenhausen, Germany).
as §4

Aspergillus fumigatus = experiment: 3 day MIC, broth microdilution in 25% PDB; conditions: 72 h
Protocol: as §1, §2, §5, §4

Aspergillus niger = experiment: 3 day MIC, broth microdilution in 25% PDB; conditions: 72 h
Protocol: as §1, §2, §5, §4

Aureobasidium pullulans = experiment: 3 day MIC, broth microdilution in 25% PDB; conditions: 72 h
Protocol: as §1, §2, §5, §4

Fusarium oxysparum ST-33 = experiment: 3 day MIC, broth microdilution in 25% PDB; conditions: ST33, 72 h
Protocol: as §1, §2, §5, §4

Mucor spp. = experiment: 3 day MIC, broth microdilution in 25% PDB; conditions: 72 h
Protocol: as §1, §2, §5, §4

Rhizopus spp. = experiment: 3 day MIC, broth microdilution in 25% PDB; conditions: 72 h
Protocol: as §1, §2, §5, §4

Stachybotrys chartarum [2] = experiment: Fungus resistance test after painting over fungal growth (defacement rating); conditions: painting over contaminated surfaces; paints containing 100 μg/mL; after 7 days
Description: In this series of experiments, fungal growth was allowed to cover a painted surface (surface containing 2 coats of the unaltered paint) to a defacement rating of 3-5, forming a ‘contaminated surface’. […] The paint application was extended approximately 1-2 cm beyond the edge of the disc onto the NSA medium. Each formulation used a separate brush to avoid cross contamination. The re-painted discs were placed back into the humid environment with elevated temperature to encourage fungal growth.
This test was used to evaluate the ability of paint films containing antifungal additives to prevent the re-emergence of fungal growth after painting over existing growth.
Olympic® Home interior flat latex paint (PPG Industries, Pittsburgh, Pa.) and Valspar® QuikHide White flat interior paint (Valspar Corporation, Minneapolis, Minn.) were used for the experiments in this study unless specified. Stock solutions of the antifungal additives of interest were prepared in reagent grade dimethyl sulfoxide (DMSO; Alfa Aesar, Ward Hill, Mass.). Additives were spiked (by adding appropriate amounts of the antifungal stock solutions) into the liquid paint at specified concentrations. Samples of additive-spiked paint were vigorously mixed with a vortex mixer for at least one minute to insure uniform dispersion of the additive in the paint. […] Studies that used other brands of paint followed the same protocol as described for those using the Olympic® Home interior flat latex paint.
Test surfaces were prepared in triplicate. In most cases, the tested conditions were repeated on a different date, again in triplicate. […] Two coats of paint were applied with a polyester brush to completely cover both faces of the filter paper disc, allowing at least four hours drying time between coats.
Nutrient-Salts Agar (NSA) media was prepared according to ASTM method G21-13 in 100×15 mm sterile polystyrene petri dishes (VWR® Radnor, Pa.) with a solidified agar layer from 3 to 6 mm (⅛ to ¼ in.) in depth. The agar was allowed to solidify for at least 24 hours before being used. The painted test filter paper discs were placed in the center of the agar plates in a biosafety hood while wearing clean nitrile gloves.
The paint coatings were evaluated against three representative fungi: Stachybotrys chartarum, Penicillium chrysogenum, and Alternaria alternata. […] Fungal isolates of Alternaria alternata and Penicillium chrysogenum were obtained from the Plant Pathology and Environmental Microbiology Department at Penn State University.
A spore suspension of each of these fungi was prepared by pouring a 20-mL portion of autoclaved deionized water containing 0.01% Tween® 20 onto a subculture of each fungal species. Spores were counted with the use of a hemocytometer (Hausser Scientific, Horsham, Pa.) under a microscope. Spore suspensions of Stachybotrys chartarum and Penicillium chrysogenum were diluted to 1×10^6 spores/mL with autoclaved deionized water. Spore suspensions of Alternaria alternata were used “as is” in the range of 200,000 to 400,000 spores/mL.
Painted test surfaces were inoculated with a spray bottle or with a cotton-tipped applicator. To inoculate the sample with a spray bottle, the spore suspension was sprayed twice on the painted test discs with a spray bottle that delivered approximately 0.14 g of fluid per spray. To inoculate the sample with a cotton-tipped applicator, an autoclaved cotton-tipped applicator was submerged in approximately 400 μL of the inoculum solution and applied evenly over the surface of the painted test surface twice.

MIC (Alternaria alternata) [µg/mL]	MIC (Stachybotrys chartarum [1]) [µg/mL]	MIC (Aspergillus flavus) [µg/mL]	MIC (Aspergillus fumigatus) [µg/mL]	MIC (Aspergillus niger) [µg/mL]	MIC (Aureobasidium pullulans) [µg/mL]	MIC (Fusarium oxysparum ST-33) [µg/mL]	MIC (Mucor spp.) [µg/mL]	MIC (Rhizopus spp.) [µg/mL]	SMILES	ability to inhibit Stachybotrys chartarum re-emergence on the surfaces (Stachybotrys chartarum [2])
6.3 (≈ 42.6 µM)	0.5 (≈ 3.38 µM)	2 (≈ 13.5 µM)	0.25 (≈ 1.69 µM)	2 (≈ 13.5 µM)	1 (≈ 6.76 µM)	1 (≈ 6.76 µM)	1 (≈ 6.76 µM)	16 (≈ 108 µM)	Cc1ccc2c(c1)COB2O [Compound B1, 5-Methyl-1,3-dihydro-2,1-benzoxaborol-1-ol]	very little ability to inhibit
200 (≈ 1210 µM)	6.3 (≈ 38 µM)	–	–	–	–	–	–	–	OB1OCCc2cc(F)ccc21 [Compound B5, 6-fluoro-3,4-dihydro-1H-2,1-benzoxaborinin-1-ol]	very little ability to inhibit
> 200	25 (≈ 153 µM)	–	–	–	–	–	–	–	Nc1ccc2c(c1)B(O)OCC2 [Compound B7, 7-amino-3,4-dihydro-1H-2,1-benzoxaborinin-1-ol]	very little ability to inhibit
